Earlier results in US20040253692A1, “Streptomyces sp. CJPV975652 capable of converting compactin to pravastatin and method for producing pravastatin using the same” (priority 2003, published 2004).

Experiments:
[1] = daily dosage of 5-10 mg for 3 months
HMG-CoA reductase = biological target: T1, HMG-CoA reductase (Homo sapiens, UniProt P04035); conditions: compared with compactin
T1 sequence (P04035 1-888): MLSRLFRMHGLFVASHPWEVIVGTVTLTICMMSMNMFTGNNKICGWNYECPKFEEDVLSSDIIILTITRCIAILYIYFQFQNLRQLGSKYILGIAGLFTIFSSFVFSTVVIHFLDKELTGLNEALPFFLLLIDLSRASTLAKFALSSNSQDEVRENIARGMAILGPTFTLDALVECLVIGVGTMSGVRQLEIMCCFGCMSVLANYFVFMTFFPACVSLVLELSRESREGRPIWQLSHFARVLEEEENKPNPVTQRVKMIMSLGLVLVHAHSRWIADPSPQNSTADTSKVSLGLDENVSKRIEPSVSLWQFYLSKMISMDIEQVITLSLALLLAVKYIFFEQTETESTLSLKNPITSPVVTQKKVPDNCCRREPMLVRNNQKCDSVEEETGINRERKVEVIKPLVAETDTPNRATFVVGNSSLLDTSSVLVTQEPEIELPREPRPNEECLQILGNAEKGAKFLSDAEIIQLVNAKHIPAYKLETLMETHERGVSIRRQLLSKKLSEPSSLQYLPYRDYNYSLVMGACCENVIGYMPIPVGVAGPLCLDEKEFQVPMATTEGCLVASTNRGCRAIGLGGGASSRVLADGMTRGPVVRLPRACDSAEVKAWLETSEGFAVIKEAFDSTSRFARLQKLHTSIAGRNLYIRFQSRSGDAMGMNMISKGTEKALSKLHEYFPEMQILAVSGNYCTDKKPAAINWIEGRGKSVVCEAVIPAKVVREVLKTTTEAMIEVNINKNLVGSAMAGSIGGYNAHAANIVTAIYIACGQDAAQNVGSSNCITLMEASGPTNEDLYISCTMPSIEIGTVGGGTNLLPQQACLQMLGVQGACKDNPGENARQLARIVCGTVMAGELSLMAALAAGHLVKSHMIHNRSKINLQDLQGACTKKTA

For CC[C@H](C)C(=O)O[C@H]1C[C@H](O)C=C2C=C[C@H](C)[C@H](CC[C@@H](O)C[C@@H](O)CC(=O)O)[C@H]21 [pravastatin], which “reduction of LDL-cholesterol level” value [1] is on record?
Its value is 20-40%.

And the “reduction of total cholesterol level” value [1]?
Its value is 20-40%.

And the “effectiveness as a HMG-CoA reductase inhibitor” value (HMG-CoA reductase)?
Its value is “more effective than compactin”.
